In patent US9840513B2 (AbbVie S.à.r.l., priority 2015, dated 2017):

Molecular target: T1, F508delCFTR cell surface expression in CFBE41o-F508delCFTR-HRP cells (Homo sapiens, UniProt P13569, DEL508-508)
T1 construct: fused on or other part: Horseradish peroxidase (HRP) reporter inserted in the fourth exofacial (extracellular) loop of CFTR; expression is doxycycline-inducible
Assay: Cell Surface Expression-Horse Radish Peroxidase (CSE-HRP) Assay
Type: cell-based
Conditions: for EC50: CFBE41o-F508delCFTR-HRP cells, 18-24 hours at 33° C., 8-point curve, highest concentration 20 μM; for Maximum % activity (%): maximum at any tested concentration, normalized to on-plate positive control (3 μM)
How it was run: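 CFBE41o- cells with HRP-tagged F508delCFTR, expression induced by 0.5 μg/mL doxycycline for 72 h at 37 °C, then compound for 18-24 h at 33 °C (8-point, 3-fold, top 20 μM). Surface HRP measured by luminol luminescence; % activity normalised to 3 μM positive-control corrector; EC50 from variable-slope sigmoidal fit, three replicate plates.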

T1 sequence (P13569 with tags, fused parts or gaps DEL508-508 limits assumed): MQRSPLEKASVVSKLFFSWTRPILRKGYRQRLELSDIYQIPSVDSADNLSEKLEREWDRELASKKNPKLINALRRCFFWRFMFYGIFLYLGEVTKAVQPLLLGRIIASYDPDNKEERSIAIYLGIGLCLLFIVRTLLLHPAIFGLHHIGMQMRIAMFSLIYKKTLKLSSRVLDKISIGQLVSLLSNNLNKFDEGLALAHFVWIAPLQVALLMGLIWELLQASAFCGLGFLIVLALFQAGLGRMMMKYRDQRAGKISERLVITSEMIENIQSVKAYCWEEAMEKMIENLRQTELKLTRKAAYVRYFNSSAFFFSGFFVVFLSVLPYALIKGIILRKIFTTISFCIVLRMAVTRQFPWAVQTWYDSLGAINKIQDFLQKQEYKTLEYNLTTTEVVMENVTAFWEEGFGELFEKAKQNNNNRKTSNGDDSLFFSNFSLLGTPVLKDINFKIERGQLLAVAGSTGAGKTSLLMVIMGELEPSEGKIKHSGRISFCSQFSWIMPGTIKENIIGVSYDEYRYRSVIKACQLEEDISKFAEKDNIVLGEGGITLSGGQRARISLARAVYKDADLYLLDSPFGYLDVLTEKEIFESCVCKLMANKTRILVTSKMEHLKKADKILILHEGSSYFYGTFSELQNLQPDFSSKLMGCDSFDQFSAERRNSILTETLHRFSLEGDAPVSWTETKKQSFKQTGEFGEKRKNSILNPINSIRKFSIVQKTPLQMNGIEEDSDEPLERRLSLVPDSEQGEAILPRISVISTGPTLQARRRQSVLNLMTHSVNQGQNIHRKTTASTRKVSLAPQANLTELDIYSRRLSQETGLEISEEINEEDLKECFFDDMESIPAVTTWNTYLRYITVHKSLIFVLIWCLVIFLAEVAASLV
T1 sequence (P13569 919-1480 limits assumed, stated change not applied): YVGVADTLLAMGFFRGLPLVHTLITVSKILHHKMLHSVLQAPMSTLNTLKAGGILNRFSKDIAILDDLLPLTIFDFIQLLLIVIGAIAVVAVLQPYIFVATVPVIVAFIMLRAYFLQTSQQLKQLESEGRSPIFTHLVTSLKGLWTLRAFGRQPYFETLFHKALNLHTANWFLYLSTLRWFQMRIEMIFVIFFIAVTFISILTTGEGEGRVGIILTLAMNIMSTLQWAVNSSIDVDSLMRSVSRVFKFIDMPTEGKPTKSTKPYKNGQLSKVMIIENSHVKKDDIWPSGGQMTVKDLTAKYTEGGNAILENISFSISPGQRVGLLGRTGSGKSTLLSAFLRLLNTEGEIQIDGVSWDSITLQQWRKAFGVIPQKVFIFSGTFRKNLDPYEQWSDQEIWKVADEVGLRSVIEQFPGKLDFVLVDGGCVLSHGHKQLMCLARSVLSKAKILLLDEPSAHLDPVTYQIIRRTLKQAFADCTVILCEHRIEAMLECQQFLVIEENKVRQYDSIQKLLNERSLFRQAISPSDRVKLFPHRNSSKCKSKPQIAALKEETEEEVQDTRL

| Molecule | EC50 [µM] | Maximum % activity (%) |
| --- | --- | --- |
| COc1ccc2c(c1)O[C@H](COCc1ccccc1)C[C@@H]2NC(=O)[C@@]1(C)COc2cc3c(cc21)OC(F)(F)O3 [Example 278, (7R)—N-{(2S,4S)-2-[(benzyloxy)methyl]-7-methoxy-3,4-dihydro-2H-1-benzopyran-4-yl}-2,2-difluoro-7-methyl-6,7-dihydro-2H-furo[2,3-f][1,3]benzodioxole-7-carboxamide] | 1.54 | 86 |
| C[C@]1(C(=O)N[C@H]2C[C@@H](C3(C(=O)N(CCO)CCO)CC3)Oc3cc(OC(F)(F)F)ccc32)COc2cc3c(cc21)OC(F)(F)O3 [Example 280, (7R)—N-[(2S,4S)-2-{1-[bis(2-hydroxyethyl)carbamoyl]cyclopropyl}-7-(trifluoromethoxy)-3,4-dihydro-2H-1-benzopyran-4-yl]-2,2-difluoro-7-methyl-6,7-dihydro-2H-furo[2,3-f][1,3]benzodioxole-7-carboxamide] | > 20 | 10 |
| COc1ccc2c(c1)O[C@@H](c1nnnn1Cc1ccccc1)C[C@H]2NC(=O)[C@@]1(C)COc2cc3c(cc21)OC(F)(F)O3 [Example 283, (7R)—N-[(2R,4R)-2-(1-benzyl-1H-tetrazol-5-yl)-7-methoxy-3,4-dihydro-2H-1-benzopyran-4-yl]-2,2-difluoro-7-methyl-6,7-dihydro-2H-furo[2,3-f][1,3]benzodioxole-7-carboxamide] | 1.76 | 95 |
| COc1ccc2c(c1)O[C@H](Cn1ncccc1=O)C[C@@H]2NC(=O)[C@@]1(C)COc2cc3c(cc21)OC(F)(F)O3 [Example 284, (7R)-2,2-difluoro-N-{(2S,4S)-7-methoxy-2-[(6-oxopyridazin-1(6H)-yl)methyl]-3,4-dihydro-2H-1-benzopyran-4-yl}-7-methyl-6,7-dihydro-2H-furo[2,3-f][1,3]benzodioxole-7-carboxamide] | 3.96 | 40 |
| COc1ccc2c(c1)O[C@@H](Cn1ncccc1=O)C[C@H]2NC(=O)[C@@]1(C)COc2cc3c(cc21)OC(F)(F)O3 [Example 285, (7R)-2,2-difluoro-N-{(2R,4R)-7-methoxy-2-[(6-oxopyridazin-1(6H)-yl)methyl]-3,4-dihydro-2H-1-benzopyran-4-yl}-7-methyl-6,7-dihydro-2H-furo[2,3-f][1,3]benzodioxole-7-carboxamide] | 1.13 | 54 |
| COc1ccc2c(c1)O[C@@H](C1CCC(C(=O)O)CC1)C[C@H]2NC(=O)[C@]1(C)COc2cc3c(cc21)OC(F)(F)O3 (stereo partly drawn) [Example 292, 4-[(2R,4R)-4-{[(7S)-2,2-difluoro-7-methyl-6,7-dihydro-2H-furo[2,3-f][1,3]benzodioxole-7-carbonyl]amino}-7-methoxy-3,4-dihydro-2H-1-benzopyran-2-yl]cyclohexane-1-carboxylic acid] | 7.54 | 99 |
| COc1ccc2c(c1)O[C@H](C1CCC(C(=O)O)CC1)C[C@@H]2NC(=O)[C@]1(C)COc2cc3c(cc21)OC(F)(F)O3 (stereo partly drawn) [Example 293, 4-[(2S,4S)-4-{[(7S)-2,2-difluoro-7-methyl-6,7-dihydro-2H-furo[2,3-f][1,3]benzodioxole-7-carbonyl]amino}-7-methoxy-3,4-dihydro-2H-1-benzopyran-2-yl]cyclohexane-1-carboxylic acid] | 1.63 | 115 |
| (7R)—N-(6-{[2R)-2,3-dihydroxypropyl]amino}pyridin-2-yl)-2,2-difluoro-7-methyl-6,7-dihydro-2H-furo[2,3-f][1,3]benzodioxole-7-carboxamide [Example 92] | 1.72 | 98 |
| (7R)—N-[5-(3R,4R)-dihydroxypyrrolidin-1-yl)pyrazin-2-yl]-2,2-difluoro-7-methyl-6,7-dihydro-2H-furo[2,3-f][1,3]benzodioxole-7-carboxamide and (7R)—N-[5-(3S,4S)-dihydroxypyrrolidin-1-yl)pyrazin-2-yl]-2,2-difluoro-7-methyl-6,7-dihydro-2H-furo[2,3-f][1,3]benzodioxole-7-carboxamide [Example 121] | 11.1 | 23 |
| (7R)—N-[6-(3-benzylpyrrolidin-1-yl)pyridin-2-yl]-2,2-difluoro-7-methyl-6,7-dihydro-2H-furo[2,3-f][1,3]benzodioxole-7-carboxamide [Example 113] | 1.11 | 83 |
| methyl 4-[(2R,4S,6S)-4-{[(7R)-2,2-difluoro-7-methyl-6,7-dihydro-2H-furo[2,3-f][1,3]benzodioxole-7-carbonyl]amino}-6-phenyloxan-2-yl]benzoate and methyl 4-[(2S,4R,6R)-4-{[(7R)-2,2-difluoro-7-methyl-6,7-dihydro-2H-furo[2,3-f][1,3]benzodioxole-7-carbonyl]amino}-6-phenyloxan-2-yl]benzoate [Example 33] | 1.18 | 131 |

Now those with a lower EC50, led by results:

| EC50 [µM] | Maximum % activity (%) | Molecule |
| --- | --- | --- |
| 0.56 | 119 | C[C@]1(C(=O)N[C@@H]2C[C@H](C3(C(=O)N(CCO)CCO)CC3)Oc3cc(OC(F)(F)F)ccc32)COc2cc3c(cc21)OC(F)(F)O3 [Example 279, (7R)—N-[(2R,4R)-2-{1-[bis(2-hydroxyethyl)carbamoyl]cyclopropyl}-7-(trifluoromethoxy)-3,4-dihydro-2H-1-benzopyran-4-yl]-2,2-difluoro-7-methyl-6,7-dihydro-2H-furo[2,3-f][1,3]benzodioxole-7-carboxamide] |
| 0.21 | 120 | C[C@]1(C(=O)Nc2cc3cc(C4(COCc5ccccc5)CC4)n(C[C@@H](O)COCc4ccccc4)c3cc2F)COc2cc3c(cc21)OC(F)(F)O3 [Example 286, (7R)—N-(1-[(2R)-3-(benzyloxy)-2-hydroxypropyl]-2-{1-[(benzyloxy)methyl]cyclopropyl}-6-fluoro-1H-indol-5-yl)-2,2-difluoro-7-methyl-6,7-dihydro-2H-furo[2,3-f][1,3]benzodioxole-7-carboxamide] |
| 0.64 | 199 | CCOC(=O)C1(CN)CCC([C@H]2C[C@@H](NC(=O)[C@@]3(C)COc4cc5c(cc43)OC(F)(F)O5)c3ccc(OC(F)(F)F)cc3O2)CC1 (stereo partly drawn) [Example 287, ethyl 1-(aminomethyl)-4-[(2R,4R)-4-{[(7R)-2,2-difluoro-7-methyl-6,7-dihydro-2H-furo[2,3-f][1,3]benzodioxole-7-carbonyl]amino}-7-(trifluoromethoxy)-3,4-dihydro-2H-1-benzopyran-2-yl]cyclohexane-1-carboxylate] |
| 0.29 | 138 | C[C@]1(C(=O)N[C@@H]2C[C@H](C3CCC(CO)(C(=O)O)CC3)Oc3cc(OC(F)(F)F)ccc32)COc2cc3c(cc21)OC(F)(F)O3 (stereo partly drawn) [Example 288, 4-[(2R,4R)-4-{[(7R)-2,2-difluoro-7-methyl-6,7-dihydro-2H-furo[2,3-f][1,3]benzodioxole-7-carbonyl]amino}-7-(trifluoromethoxy)-3,4-dihydro-2H-1-benzopyran-2-yl]-1-(hydroxymethyl)cyclohexane-1-carboxylic acid] |
| 0.64 | 140 | C[C@]1(C(=O)N[C@@H]2C[C@H](C3CCC(CN)(C(=O)O)CC3)Oc3cc(OC(F)(F)F)ccc32)COc2cc3c(cc21)OC(F)(F)O3 (stereo partly drawn) [Example 289, 1-(aminomethyl)-4-[(2R,4R)-4-{[(7R)-2,2-difluoro-7-methyl-6,7-dihydro-2H-furo[2,3-f][1,3]benzodioxole-7-carbonyl]amino}-7-(trifluoromethoxy)-3,4-dihydro-2H-1-benzopyran-2-yl]cyclohexane-1-carboxylic acid] |
| 0.53 | 189 | COc1cc2c(cc1Br)[C@H](NC(=O)[C@@]1(C)COc3cc4c(cc31)OC(F)(F)O4)C[C@H]([C@H]1CC[C@H](C(=O)O)CC1)O2 [Example 290, trans-4-[(2R,4R)-6-bromo-4-{[(7R)-2,2-difluoro-7-methyl-6,7-dihydro-2H-furo[2,3-f][1,3]benzodioxole-7-carbonyl]amino}-7-methoxy-3,4-dihydro-2H-1-benzopyran-2-yl]cyclohexane-1-carboxylic acid] |
| 0.67 | 117 | COc1ccc2c(c1)O[C@@H]([C@H]1CC[C@H](C(=O)O)CC1)C[C@H]2NC(=O)[C@@]1(C)COc2c1cc1c(c2I)OC(F)(F)O1 [Example 291, trans-4-[(2R,4R)-4-{[(7R)-2,2-difluoro-4-iodo-7-methyl-6,7-dihydro-2H-furo[2,3-f][1,3]benzodioxole-7-carbonyl]amino}-7-methoxy-3,4-dihydro-2H-1-benzopyran-2-yl]cyclohexane-1-carboxylic acid] |
